Columns and labels:
caspase-3 activation = assay: Active caspase-3 ELISA in glutamate-treated cortical neurons; format: cell-based, rat; conditions: 50 nM or higher concentrations, 50 μM glutamate for 16 hours, FIG. 29
Method: To quantitatively compare the anti-apoptotic activity of 7,8-DHF and 4′-DMA-7,8-DHF, cortical neurons were prepared from E16 rat embryonic cells and pretreated with various indicated concentrations of 4′-DMA-7,8-DHF and 7,8-DHF for 30 min, followed by 50 μM glutamate for 16 hours. The cell lysates were quantitatively analyzed with an active caspse-3 ELISA.

TrkA [1] = target: TrkA (Mus musculus, UniProt Q3UFB7); assay: Immunoblotting of brain lysates from forced swim test mice: TrkA; format: in vivo; design: from tissue; host or cells: mouse brain; conditions: 5 mg/kg, 21 days oral, anti-p-TrkA 794, FIG. 35
Sequence of TrkA (Mus musculus, UniProt Q3UFB7) (Q3UFB7 34-799): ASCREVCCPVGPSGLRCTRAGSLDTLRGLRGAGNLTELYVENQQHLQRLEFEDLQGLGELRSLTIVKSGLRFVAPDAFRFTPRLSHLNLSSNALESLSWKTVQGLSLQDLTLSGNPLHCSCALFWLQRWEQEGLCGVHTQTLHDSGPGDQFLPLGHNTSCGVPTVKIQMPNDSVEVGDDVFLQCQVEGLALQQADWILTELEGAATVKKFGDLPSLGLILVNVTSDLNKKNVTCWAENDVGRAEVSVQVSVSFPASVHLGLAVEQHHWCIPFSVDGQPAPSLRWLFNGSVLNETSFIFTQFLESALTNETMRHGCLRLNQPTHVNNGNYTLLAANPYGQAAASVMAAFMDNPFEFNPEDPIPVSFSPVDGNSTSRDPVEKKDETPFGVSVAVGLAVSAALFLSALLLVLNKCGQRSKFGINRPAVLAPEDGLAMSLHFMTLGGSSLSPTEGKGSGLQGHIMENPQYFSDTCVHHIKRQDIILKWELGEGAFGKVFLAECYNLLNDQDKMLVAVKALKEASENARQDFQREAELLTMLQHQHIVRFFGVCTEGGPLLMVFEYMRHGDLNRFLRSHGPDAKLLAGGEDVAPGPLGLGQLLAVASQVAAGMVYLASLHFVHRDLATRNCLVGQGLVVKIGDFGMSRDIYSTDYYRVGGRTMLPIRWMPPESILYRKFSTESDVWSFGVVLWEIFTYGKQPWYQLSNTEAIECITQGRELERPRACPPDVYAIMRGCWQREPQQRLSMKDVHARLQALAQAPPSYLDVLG
Method: (§1) To explore whether 4′-DMA-7,8-DHF and 7,8-DHF have any antidepressant effect, a forced swim test (6 minutes, immobility recorded in the last 4 minutes) was conducted after chronic treatment of male C57BL/6J mice (8 mice/group) for 21 days via oral injection.

[2] = tested on: KA-induced caspase-3 activation; assay: KA-induced neuronal cell death in TrkB F616A mice, oral TrkB agonists; format: in vivo, TrkB F616A knock-in mice
Method: TrkB F616A knockin mice (2-3 months old) were fed 1NMPP1 (25 μM) in drinking water one day before pharmacological reagent treatment. The next day, the mice were orally injected with 7,8-DHF or 4′-DMA-7,8-DHF (5 mg/kg) 4 hours before kainic acid (20 mg/kg). The control mice were injected with saline, 1NMPP1, kainic acid alone or administrated 7,8-DHF or 4′-DMA-7,8-DHF 4 hours before kainic acid. In 4 days, the mice were sacrificed and brains were homogenized and ultra-centrifuged. The supernatant (40 μg) was employed for SDS-PAGE and immunoblotting analysis with indicated antibodies, respectively.
To explore whether the neuroprotective effect of these small molecules is dependent on TrkB activation in vivo, TrkB F616A knock-in mice were used.

TrkB [3] = target: T1, TrkB (Rattus norvegicus, UniProt Q63604); assay: TrkB activation in primary cortical neurons (p-TrkB Y817 immunoblotting); format: cell-based; design: endogenous in cells; host or cells: primary cortical neurons; conditions: FIG. 27 right
T1 sequence (Q63604 32-821): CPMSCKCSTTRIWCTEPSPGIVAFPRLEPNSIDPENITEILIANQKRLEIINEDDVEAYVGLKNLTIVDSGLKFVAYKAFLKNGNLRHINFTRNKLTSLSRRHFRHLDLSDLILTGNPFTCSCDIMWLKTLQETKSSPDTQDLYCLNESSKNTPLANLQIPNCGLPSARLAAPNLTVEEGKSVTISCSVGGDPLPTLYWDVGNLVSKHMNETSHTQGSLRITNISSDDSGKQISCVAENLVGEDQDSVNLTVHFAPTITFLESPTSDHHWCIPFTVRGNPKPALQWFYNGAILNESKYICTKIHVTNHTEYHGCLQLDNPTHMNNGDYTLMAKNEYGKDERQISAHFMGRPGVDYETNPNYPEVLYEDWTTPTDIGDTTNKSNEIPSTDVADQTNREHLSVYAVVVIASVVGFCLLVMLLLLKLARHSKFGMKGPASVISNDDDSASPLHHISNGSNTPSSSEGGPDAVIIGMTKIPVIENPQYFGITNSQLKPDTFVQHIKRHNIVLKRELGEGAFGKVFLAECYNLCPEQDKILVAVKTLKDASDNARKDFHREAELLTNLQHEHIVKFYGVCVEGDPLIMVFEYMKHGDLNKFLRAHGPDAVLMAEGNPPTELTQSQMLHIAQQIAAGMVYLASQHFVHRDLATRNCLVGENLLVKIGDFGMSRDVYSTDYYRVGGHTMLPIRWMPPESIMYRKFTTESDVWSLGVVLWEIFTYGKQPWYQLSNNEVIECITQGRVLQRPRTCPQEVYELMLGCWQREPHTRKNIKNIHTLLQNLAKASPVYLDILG
Method: Primary cultured rat cortical neurons were prepared as follows. E17 rat pups were decapitated and cortex was extirpated, cross chopped, and suspended by pipetting for separation in 5% fetal calf serum (FCS), 5% horse serum (HS) DMEM. The cell suspension was then centrifuged at 250×g for 5 minutes. This operation was repeated again. Cells were seeded into polyethyleneimine-coated 10 cm^2 dishes and 12-well plates including coated-coverslips and incubated at 37° C. in 5% CO2/95% air. After 3 hours, the culture medium was changed to Neurobasal containing B-27 supplement (Invitrogen; Carlsbad, Calif.) and incubated for 4 days. For maintenance, half of the culture medium was changed to fresh Neurobasal/B27 every 4 days. After 1 week, the dished cultured neurons were ready for use.
To compare the TrkB activation by the synthetic compounds of Examples 9 and 10 (see FIG. 26), primary cortical cultures were prepared. The cortical neurons were treated with 500 nM of various compounds for 30 min and collected the cell lysates. […] Replacing the H-bond acceptor O atom with hydrogen bond donor NH reduced its stimulatory effect. […] In comparison, 7,8-DHF provoked TrkB activation with the minimal concentration of 100 nM (FIG. 27, right panels).

TrkB [4] = target: T2, TrkB (Mus musculus, UniProt P15209); assay: Time course of TrkB activation in mouse brain; format: in vivo, C57BL/6J mice; conditions: 1 mg/kg, oral injection, FIG. 28
T2 construct: from tissue; host or cells: mouse brain
T2 sequence (P15209 32-821): as the sequence (Q63604 32-821) above, with M3T, T9S, T10A, I32V, K63R, G84S, T153M, I185L, T394S, N770S counted along it
Method: To compare the stimulatory effect on TrkB receptor in mouse brain, 1 mg/kg of these compounds was injected into C57BL/6J mice and monitored TrkB activation at different time points (see FIG. 28). […] In contrast, 7,8-DHF triggered TrkB activation 2 h after oral injection and peaked at 4 h and TrkB activity progressively faded away. The TrkB activity was demonstrable even at 16 h (FIG. 28).

[5] = target: T3, TrkB extracellular domain (ECD) (Rattus norvegicus, UniProt Q63604); assay: In vitro binding assay with [3H]7,8-dihydroxyflavone, filter, Scatchard plot: TrkB ECD
T3 construct: purified TrkB extracellular domain (ECD) and intracellular domain (ICD) recombinant proteins
T3 sequence (Q63604 32-429 limits assumed): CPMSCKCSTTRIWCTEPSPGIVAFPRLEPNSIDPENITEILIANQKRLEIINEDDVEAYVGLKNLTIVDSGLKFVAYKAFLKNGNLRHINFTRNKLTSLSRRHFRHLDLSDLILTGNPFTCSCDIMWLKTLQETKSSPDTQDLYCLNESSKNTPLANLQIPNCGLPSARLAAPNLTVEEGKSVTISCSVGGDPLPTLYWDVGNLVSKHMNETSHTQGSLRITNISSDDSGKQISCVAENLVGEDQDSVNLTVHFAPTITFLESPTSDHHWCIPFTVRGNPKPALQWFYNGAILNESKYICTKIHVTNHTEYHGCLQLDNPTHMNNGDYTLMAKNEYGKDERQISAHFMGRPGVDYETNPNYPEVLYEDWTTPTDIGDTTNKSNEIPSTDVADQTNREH
Method: To determine whether 7,8-dihydroxyflavone physically and directly binds the TrkB receptor, in vitro binding assays were conducted with purified TrkB extracellular domain (ECD) and intracellular domain (ICD) recombinant proteins. Purified TrkB ECD and ICD (10 μg of each) were incubated with different concentrations of ^3H-7,8-dihydroxyflavone in 1 ml of binding buffer (0.05M Na/K phosphate buffer, pH 7.1, 200 mM NaCl) at 4° C. for 10 minutes. After the incubation, the reaction mixture was loaded on filter paper. The mixture was washed three times with Tris buffer (100 mM Tris, pH 7.1), and the dried filter paper was put into a small vial and subjected to liquid scintillation counter analysis. […] The value of the dissociate constant and the number of sites were obtained from Scatchard plots using the equation r/[L]free=n/Kd−r/Kd, where r is the ratio of the concentration of bound ligand to the total protein concentration and n is the number of binding sites.

hippocampal neurons = assay: Glutamate-triggered apoptosis in hippocampal neurons; format: cell-based; conditions: pretreated 30 minutes, 50 μM glutamate for 16 hours, compared with BDNF, FIG. 6
Method: To examine whether these compounds could promote neuronal survival, hippocampal neurons were prepared and the cultures were pretreated with various flavone derivatives for 30 minutes, followed by treatment with 50 μM glutamate for 16 hours.

TrkB [6] = target: T2, TrkB; assay: Immunoblotting of brain lysates from forced swim test mice: TrkB; format: in vivo; conditions: 5 mg/kg, 21 days oral, anti-p-TrkB 817, FIG. 35
Method: as §1

TrkA [7] = target: T4, TrkA (Homo sapiens, UniProt P04629); assay: Tyrosine phosphorylation of Trk receptors in transfected HEK293 cells: TrkA; format: cell-based; conditions: FIG. 15
T4 construct: expressed in transfected cells; host or cells: HEK293
T4 sequence (P04629 33-796, species assumed): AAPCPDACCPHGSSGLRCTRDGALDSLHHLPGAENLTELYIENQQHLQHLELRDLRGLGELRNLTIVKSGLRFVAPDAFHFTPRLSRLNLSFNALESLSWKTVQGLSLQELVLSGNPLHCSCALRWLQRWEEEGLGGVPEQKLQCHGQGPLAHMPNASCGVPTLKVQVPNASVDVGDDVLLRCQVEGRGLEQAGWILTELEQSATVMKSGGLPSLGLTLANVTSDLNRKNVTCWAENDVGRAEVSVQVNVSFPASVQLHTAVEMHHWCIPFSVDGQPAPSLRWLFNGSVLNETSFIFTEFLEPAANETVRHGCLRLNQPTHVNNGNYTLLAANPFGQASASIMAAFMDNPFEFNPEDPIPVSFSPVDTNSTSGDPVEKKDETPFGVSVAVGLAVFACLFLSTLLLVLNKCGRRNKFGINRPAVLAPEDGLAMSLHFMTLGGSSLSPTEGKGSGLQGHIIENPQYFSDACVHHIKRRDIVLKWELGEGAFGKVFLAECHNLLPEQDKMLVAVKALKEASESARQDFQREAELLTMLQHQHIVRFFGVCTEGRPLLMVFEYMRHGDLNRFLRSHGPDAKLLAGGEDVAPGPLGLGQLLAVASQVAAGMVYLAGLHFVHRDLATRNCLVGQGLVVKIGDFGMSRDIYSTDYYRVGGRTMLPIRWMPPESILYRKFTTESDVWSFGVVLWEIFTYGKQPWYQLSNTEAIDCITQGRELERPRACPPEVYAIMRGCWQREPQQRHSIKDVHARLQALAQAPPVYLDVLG
Source text: To determine if 7,8-dihydroxyflavone promoted tyrosine phosphorylation of the other Trk receptors, HEK293 cells were transfected with various Trk receptors, followed by treatment with 7,8-dihydroxyflavone.

TrkB [8] = target: T1, TrkB; assay: Western analysis of TrkB activation in hippocampal neurons; format: cell-based; design: endogenous in cells; host or cells: primary hippocampal neurons; conditions: FIG. 9
Method: To further examine whether 7,8-dihydroxyflavone can stimulate TrkB-mediated downstream signaling cascades, Western analysis was performed.
To further test that the stimulatory effect of 7,8-dihydroxyflavone is mediated through TrkB, cells were either untreated or treated with K252a, a selective inhibitor of the tyrosine kinase activity of the Trk family of neutrophin receptors.

`O=c1cc(-c2ccccc2)oc2c(O)c(O)ccc12` [7,8-dihydroxyflavone] was tested, and the “Glutamate-provoked caspase-3 activation” value (caspase-3 activation) was “substantially blocked”, the “TrkA activation in mouse brain” value (TrkA [1]) was “not TrkA activation” and the “KA-caused caspase-3 activation” value ([2]; 5 mg/kg orally 4 hours before kainic acid (20 mg/kg), FIG. 31) was “markedly diminished”. The “protective effect after 1NMPP1 pretreatment” value ([2]; 1NMPP1 (25 μM) in drinking water, FIG. 31 top) was “abolished”, the “TrkB phosphorylation after 1NMPP1 pretreatment” value ([2]; FIG. 31, 2nd panel) was “notably blocked” and the “minimal concentration triggering TrkB activation (titration assay)” value (TrkB [3]) was 100 nM. The “TrkB activity at 16 h” value (TrkB [4]) was “demonstrable”, the “time at which TrkB activation was elicited” value (TrkB [4]) was 2 h and the “time at which TrkB activity peaked” value (TrkB [4]) was 4 h. For the same compound, the Kd ([5]; Scatchard plot, 4° C., 10 minutes, FIG. 16, read-out: binding constant Kd) was 320 nM, the “binding to TrkB ECD” value ([5]; gradual increments of [3H]-7,8-dihydroxyflavone) was “progressively bound TrkB ECD” and the “protection of hippocampal neurons from glutamate-induced apoptosis” value (hippocampal neurons) was “more protective effect on the neurons than did the positive control BDNF”. For the same compound, the “TrkB activation in mouse brain” value (TrkB [6]) was “provoke TrkB”, the “tyrosine phosphorylation of TrkA receptor” value (TrkA [7]) was “not” and the “activation of TrkB (Western)” value (TrkB [8]) was “demonstrated activation of TrkB”.

From patent US9895344B2, “Treating various disorders with 7,8-dihydroxyflavone and derivatives thereof” (EMORY UNIVERSITY, priority 2008, dated 2018)
